# From patent US11413261B2, “Pharmaceutical composition for treating cancer comprising lactate metal salt” (METIMEDI PHARMACEUTICALS CO., LTD, priority 2014, dated 2022)
# Assays:
# [1] = system: PARP; assay: PARP protein expression in breast cancer cell lines (Western blot); format: cell-based, human
# Experimental: Human breast cancer cell lines (MCF-7 and MDA-MB-231) were cultured by the same method as that of Example 2-1 except that they were treated with 0 mM, 2.5 mM, or 5.0 mM calcium lactate, and the cultured cancer cells were obtained. Then, changes in expression level depending on the concentration of calcium lactate was analyzed at the protein expression levels of PARP included therein (FIG. 8). In this case, the change in expression level was analyzed through a Western blot using the Image-J program with anti-PARP antibody as a primary antibody and anti-rabbit IgG conjugate as a secondary antibody, and GAPDH was used as internal control groups.
# [2] = system: human breast cancer cell line (MCF-7); assay: Colony-forming ability, anticancer drug in combination with calcium lactate (6-well plates); format: cell-based; conditions: 2.5 mM calcium lactate alone, vs control
# Experimental: Human breast cancer cell line (MCF-7) and a human lung cancer cell line (A549) with the cell number of 1×10^3 cells were seeded into an RPMI1640 medium in each of 6-well plates. […] Then, the colony-forming abilities of the cells were compared. In this case, a human breast cancer cell line (MCF-7) and a human lung cancer cell line (A549) untreated with any drug were used as control groups (FIGS. 42a, 42b, 43a and 43b).
# Human breast cancer cell line (MCF-7) with the cell number of 1×10^3 cells were seeded into an RPMI1640 medium in each of 6-well plates. After one day, the medium was replaced with fresh medium and the cells were treated with 2.5 mM calcium lactate or 2 μM, 4 μM, and 8 μM Lapatinib alone or treated with various concentrations (2 μM, 4 μM, and 8 μM) of Lapatinib in combination with 2.5 mM calcium lactate. Then, the colony-forming abilities of the cells were compared. In this case, a human breast cancer cell line (MCF-7) untreated with any drug was used as a control group (FIGS. 52a and 52b).
# [3] = system: human colorectal cancer cell lines (HCT-116, HT-29, and DLD-1); assay: Colony-forming ability of colorectal cancer cell lines in solid medium; format: cell-based; conditions: HCT-116, HT-29, DLD-1; with increasing concentration (0.5, 1.5, 2.5 mM), 10 days
# Experimental: (§1) Firstly, human colorectal cancer cell lines (HCT-116, HT-29, and DLD-1) were inoculated into solid mediums including various concentrations (0 mM, 0.5 mM, 1.5 mM, or 2.5 mM) of calcium lactate and cultured for 10 days. After the completion of the culture, the cells were immobilized and stained with hematoxylin. Then, the number of cancer cells formed into colonies was counted (FIG. 23).
# [4] = system: PARP; assay: PARP expression in tumor tissue of xenograft animal model; format: in vivo, Balb/c mice; conditions: HT-29 tumor tissue; 2.5 mM P.O. or 2.5 mM I.T.; vs control group
# Experimental: (§2) A colorectal cancer cell (HT-29) cultured in an RPMI1640 medium and then diluted with PBS was subcutaneously implanted into the flank of Balb/c mice. The mice were bred until the colorectal cancer cell grew to about 5 mm. Then, four groups were set up; a control group untreated with calcium lactate for 30 days, an experimental group 1 (peroral, P.O.) administered with 2.5 mM calcium lactate by oral administration, an experimental group 2 (intra tumor, I.T) injected with 2.5 mM calcium lactate around tumor, and an experimental group 3 (subcutaneous, S.C) subcutaneously injected with 25 mM calcium lactate (FIG. 27).
# Colorectal cancer tissues were extracted from the mice of the control group, the experimental group 1, or the experimental group 2 set up in Example 10-1, and expression levels of PARP and truncated PARP contributing to stabilization of cancer cells expressed therein were compared (FIG. 28).
# [5] = system: β-catenin; assay: β-catenin mRNA (RT-PCR) and protein (Western blot) expression in colorectal cancer cell lines; format: cell-based, human; conditions: HCT-116, HT-29, DLD-1
# Experimental: Human colorectal cancer cell lines (HCT-116, HT-29, and DLD-1) were cultured by the same method as that of Example 2-1 except that they were treated with 0 mM, 1.5 mM, or 2.5 mM calcium lactate, and the cultured cancer cells were obtained. Then, expression levels of […] depending on the concentration of calcium lactate were compared at the expression levels of mRNA and protein included therein.
# Firstly, in order to compare mRNA expression levels, the total RNA was extracted from each of the cancer cells using an RNeasy mini kit and cDNA was synthesized using a reverse transcriptase. The gene of β-catenin was obtained through reverse transcriptase PCR using the synthesized cDNA as a template and the primers described below.
# Then, in order to compare protein expression levels, each of the cancer cells was disrupted and electrophoresis was performed thereto. Then, a Western blot using anti-β-catenin antibody as a primary antibody and an anti-rabbit IgG conjugate as a secondary antibody was conducted (lower part of FIG. 5) and the blots were analyzed with the Image-J program. In this case, actin was used as internal control groups.
# [6] = system: HIF-1α; assay: HIF-1α expression in tumor tissues of animal model; format: in vivo, Balb/c mice; conditions: HT-29 tumor tissue
# Experimental: as §2
# (§3) Colorectal cancer tissues were extracted from the mice of the control group or the experimental group 1 set up in Example 10-1, and expression levels of HIF-1α and VEGF involved in metastasis, invasion, and angiogenesis of tumor expressed therein were compared (FIG. 29). In this case, GAPDH was used as internal control groups.
# as §3, with “group 2” for “group 1”, “tumor” for “tumor expressed”, “(FIG. 31).” for “(FIG. 29).”
# [7] = system: cancer cell lines; assay: α-KG level in cancer cells (α-Ketoglutarate assay kit); format: cell-based; conditions: normal medium or glutamine-free medium; 2.5 mM, 24 hours
# Experimental: Cancer cell lines with the cell number of 5×10^5 cells cultured in a normal medium or a glutamine-free medium were treated with 2.5 mM calcium lactate for 24 hours and the cells were disrupted by ultrasonication and filtered using a 10 kDa filter so as to obtain filtrate. The obtained filtrate was applied to an α-Ketoglutarate assay kit (BioVision, Exton, Pa.) to measure the concentration of α-KG included in the filtrate (FIGS. 14a and 14b).
# [8] = system: human melanoma cell lines (SKMEL-02 and SKMEL-28); assay: Colony-forming ability of melanoma cell lines in solid medium; format: cell-based
# Experimental: as §1
# Then, using the same method as described above, human melanoma cell lines (SKMEL-02 and SKMEL-28) were inoculated into solid mediums including various concentrations (1 mM, 2.5 mM, or 5 mM) of calcium lactate and culture was performed, and the number of cancer cells formed into colonies were counted (FIGS. 24a and 24b).
structure (smiles),measurement,setting,value
CC(O)C(=O)[O-].CC(O)C(=O)[O-].[Ca+2] (stereo not shown) [calcium lactate],protein expression levels of PARP,"[1]; MCF-7 and MDA-MB-231, with increasing concentration (0, 2.5, 5.0 mM)",decreased
same,protein expression levels of the truncated PARP,"[1]; MCF-7 cell line, 0, 2.5, 5.0 mM",increased
same,colony-forming ability,[2],suppressed
same,number of colonies,[3],decreased
same,PARP degrading activity,[4],increased
same,mRNA expression levels of β-catenin,"[5]; 0, 1.5, 2.5 mM",no difference
same,protein expression levels of β-catenin,"[5]; with increasing concentration (0, 1.5, 2.5 mM)",decreased
same,expression of HIF-1α,"[6]; experimental group 1, 2.5 mM oral administration",inhibited
same,expression of HIF-1α,"[6]; experimental group 2, 2.5 mM injected around tumor",inhibited
same,α-KG levels in the cells,[7],sharply increased
same,number of colonies,"[8]; SKMEL-02, 5 mM (untreated 105 to 168)",about 49 colonies
same,number of colonies,"[8]; SKMEL-02 and SKMEL-28, with increasing concentration (1, 2.5, 5 mM)",decreased
same,number of colonies,"[8]; SKMEL-28, 5 mM",colony was not formed
